Results taken from patent US20230312605A1, “PYRROLO[2,1-F][1,2,4]TRIAZINES AND PREPARATION AND USES THEREOF” (BioSplice Therapeutics, Inc., priority 2021, published 2023).

Molecular target: recombinant DYRK1A kinase (Homo sapiens (Human), UniProt Q13627)
Assay: DYRK1A kinase assay (Ser/Thr 18 peptide Z-lyte FRET assay)
Assay type: biochemical
Settings: recombinant DYRK1A 0.25 µg/mL, ATP 15 µM, Ser/Thr peptide 18 4 µM, one hour at room temperature; table head prints EC50, method says IC50
Summary of the method: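 Recombinant human DYRK1A (0.25 µg/mL) with 15 µM ATP and 4 µM Ser/Thr 18 peptide was incubated 1 h at room temperature with compound (11-point, 10 µM top), in duplicate. Z-lyte FRET read-out (coumarin/fluorescein emission ratio) was converted to percent phosphorylation; IC50 from non-linear regression.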

Row | SMILES | EC50 [nM]
1 | Cc1nc2ccc(-c3ccn4nc(N[C@H]5CC[C@@H](CN6CCN(C)CC6)CC5)ncc34)nc2n1CC(F)F [Compound 1841, 5-(3-(2,2-Difluoroethyl)-2-methyl-3H-imidazo[4,5-b]pyridin-5-yl)-N-(cis-4-((4-methylpiperazin-1-yl)methyl)cyclohexyl)pyrrolo[2,1-f][1,2,4]triazin-2-amine] | 6
2 | Cc1nc2ccc(-c3ccn4nc(N[C@H]5CC[C@@H](CN6CCOCC6)CC5)ncc34)nc2n1CC(F)F [Compound 1842, 5-(3-(2,2-difluoroethyl)-2-methyl-3H-imidazo[4,5-b]pyridin-5-yl)-N-(cis-4-(morpholinomethyl)cyclohexyl)pyrrolo[2,1-f][1,2,4]triazin-2-amine] | 5
3 | CCOC(=O)[C@H]1CC[C@@H](Nc2ncc3c(-c4ccc5nc(C)n(CC(F)F)c5n4)ccn3n2)CC1 [Compound 1843, Ethyl cis-4-((5-(3-(2,2-difluoroethyl)-2-methyl-3H-imidazo[4,5-b]pyridin-5-yl)pyrrolo[2,1-f][1,2,4]triazin-2-yl)amino)cyclohexane-1-carboxylate] | 33
4 | CC(=O)N[C@H]1CC[C@H](Nc2ncc3c(-c4ccc5nc(C)n(CC(F)F)c5n4)ccn3n2)CC1 [Compound 1844, N-(trans-4-((5-(3-(2,2-Difluoroethyl)-2-methyl-3H-imidazo[4,5-b]pyridin-5-yl)pyrrolo[2,1-f][1,2,4]triazin-2-yl)amino)cyclohexyl)acetamide] | 3
5 | Cc1nc2ccc(-c3ccn4nc(N[C@H]5CC[C@@H](C(=O)N(C)C)CC5)ncc34)nc2n1CC(F)F [Compound 1845, cis-4-((5-(3-(2,2-Difluoroethyl)-2-methyl-3H-imidazo[4,5-b]pyridin-5-yl)pyrrolo[2,1-f][1,2,4]triazin-2-yl)amino)-N,N-dimethylcyclohexane-1-carboxamide] | 4
6 | Cc1nc2ccc(-c3ccn4nc(NC5CCC6(CC5)CN(C)C6)ncc34)nc2n1CC(F)F [Compound 1846, 5-(3-(2,2-Difluoroethyl)-2-methyl-3H-imidazo[4,5-b]pyridin-5-yl)-N-(2-methyl-2-azaspiro[3.5]nonan-7-yl)pyrrolo[2,1-f][1,2,4]triazin-2-amine] | 4
7 | Cc1nc2ccc(-c3ccn4nc(NC5CCC6(CC5)OCCO6)ncc34)nc2n1CC(F)F [Compound 1847] | 5
8 | Cc1nc2ccc(-c3ccn4nc(NCC5CN(C)CCO5)ncc34)nc2n1CC(F)F (centres unmarked) [Compound 1848, 5-(3-(2,2-Difluoroethyl)-2-methyl-3H-imidazo[4,5-b]pyridin-5-yl)-N-((4-methylmorpholin-2-yl)methyl)pyrrolo[2,1-f][1,2,4]triazin-2-amine] | 5
9 | Cc1nc2ccc(-c3ccn4nc(NC5CCN(CCF)CC5)ncc34)nc2n1CC(F)F [Compound 1849] | 7
10 | Cc1nc2ccc(-c3ccn4nc(NC5CCN(CC(F)F)CC5)ncc34)nc2n1CC(F)F [Compound 1850, 5-(3-(2,2-Difluoroethyl)-2-methyl-3H-imidazo[4,5-b]pyridin-5-yl)-N-(1-(2,2-difluoroethyl)piperidin-4-yl)pyrrolo[2,1-f][1,2,4]triazin-2-amine] | 8
11 | Cc1nc2ccc(-c3ccn4nc(NC5CCN(CCC(F)(F)F)CC5)ncc34)nc2n1CC(F)F [Compound 1851] | 11
12 | Cc1nc2ccc(-c3ccn4nc(NC5CCN(CCO)CC5)ncc34)nc2n1CC(F)F [Compound 1852, 2-(4-((5-(3-(2,2-Difluoroethyl)-2-methyl-3H-imidazo[4,5-b]pyridin-5-yl)pyrrolo[2,1-f][1,2,4]triazin-2-yl)amino)piperidin-1-yl)ethan-1-ol] | 9
13 | Cc1nc2ccc(-c3ccn4nc(N[C@@H]5CCN(C)C[C@@H]5F)ncc34)nc2n1CC(F)F [Compound 1853, 5-(3-(2,2-Difluoroethyl)-2-methyl-3H-imidazo[4,5-b]pyridin-5-yl)-N-((3S,4R)-3-fluoro-1-methylpiperidin-4-yl)pyrrolo[2,1-f][1,2,4]triazin-2-amine] | 5
14 | Cc1nc2ccc(-c3ccn4nc(N[C@@H]5CCN(C)C[C@H]5F)ncc34)nc2n1CC(F)F [Compound 1854] | 8
15 | Cc1nc2ccc(-c3ccn4nc(N[C@H]5CCN(C)C[C@@H]5F)ncc34)nc2n1CC(F)F [Compound 1855, 5-(3-(2,2-Difluoroethyl)-2-methyl-3H-imidazo[4,5-b]pyridin-5-yl)-N-((3S,4S)-3-fluoro-1-methylpiperidin-4-yl)pyrrolo[2,1-f][1,2,4]triazin-2-amine] | 6
16 | Cc1nc2ccc(-c3ccn4nc(N[C@H]5CCN(C)C[C@H]5F)ncc34)nc2n1CC(F)F [Compound 1856] | 6

Row | SMILES | EC50 [nM]
17 | CC(=O)N1CCC(Nc2ncc3c(-c4ccc5nc(C)n(CC(F)F)c5n4)ccn3n2)CC1 [Compound 1857, 1-(4-((5-(3-(2,2-Difluoroethyl)-2-methyl-3H-imidazo[4,5-b]pyridin-5-yl)pyrrolo[2,1-f][1,2,4]triazin-2-yl)amino)piperidin-1-yl)ethan-1-one] | 3
18 | CCC(=O)N1CCC(Nc2ncc3c(-c4ccc5nc(C)n(CC(F)F)c5n4)ccn3n2)CC1 [Compound 1858, 1-(4-((5-(3-(2,2-Difluoroethyl)-2-methyl-3H-imidazo[4,5-b]pyridin-5-yl)pyrrolo[2,1-f][1,2,4]triazin-2-yl)amino)piperidin-1-yl)propan-1-one] | 7
19 | Cc1nc2ccc(-c3ccn4nc(NC5CCN(C(=O)C(C)C)CC5)ncc34)nc2n1CC(F)F [Compound 1859, 1-(4-((5-(3-(2,2-Difluoroethyl)-2-methyl-3H-imidazo[4,5-b]pyridin-5-yl)pyrrolo[2,1-f][1,2,4]triazin-2-yl)amino)piperidin-1-yl)-2-methylpropan-1-one] | 8
20 | Cc1nc2ccc(-c3ccn4nc(NC5CCN(C(=O)C6CC6)CC5)ncc34)nc2n1CC(F)F [Compound 1860] | 5
21 | Cc1nc2ccc(-c3ccn4nc(NC5CCN(S(C)(=O)=O)CC5)ncc34)nc2n1CC(F)F [Compound 1861, 5-(3-(2,2-Difluoroethyl)-2-methyl-3H-imidazo[4,5-b]pyridin-5-yl)-N-(1-(methylsulfonyl)piperidin-4-yl)pyrrolo[2,1-f][1,2,4]triazin-2-amine] | 7
22 | Cc1nc2ccc(-c3ccn4nc(NC5CCN(C6COC6)CC5)ncc34)nc2n1CC(F)F [Compound 1862, 5-(3-(2,2-Difluoroethyl)-2-methyl-3H-imidazo[4,5-b]pyridin-5-yl)-N-(1-(oxetan-3-yl)piperidin-4-yl)pyrrolo[2,1-f][1,2,4]triazin-2-amine] | 6
23 | Cc1nc2ccc(-c3ccn4nc(N[C@@H]5CCCOC5)ncc34)nc2n1CC(F)F [Compound 1863, (R)-5-(3-(2,2-Difluoroethyl)-2-methyl-3H-imidazo[4,5-b]pyridin-5-yl)-N-(tetrahydro-2H-pyran-3-yl)pyrrolo[2,1-f][1,2,4]triazin-2-amine] | 8
24 | Cc1nc2ccc(-c3ccn4nc(N[C@H]5CCCOC5)ncc34)nc2n1CC(F)F [Compound 1864, (S)-5-(3-(2,2-Difluoroethyl)-2-methyl-3H-imidazo[4,5-b]pyridin-5-yl)-N-(tetrahydro-2H-pyran-3-yl)pyrrolo[2,1-f][1,2,4]triazin-2-amine] | 3
25 | Cc1nc2ccc(-c3ccn4nc(N[C@@H]5CCOC[C@@H]5O)ncc34)nc2n1CC(F)F [Compound 1865, (3R,4R)-4-((5-(3-(2,2-Difluoroethyl)-2-methyl-3H-imidazo[4,5-b]pyridin-5-yl)pyrrolo[2,1-f][1,2,4]triazin-2-yl)amino)tetrahydro-2H-pyran-3-ol] | 20
26 | Cc1nc2ccc(-c3ccn4nc(N[C@@H]5CCOC[C@H]5O)ncc34)nc2n1CC(F)F [Compound 1866, (3S,4R)-4-((5-(3-(2,2-Difluoroethyl)-2-methyl-3H-imidazo[4,5-b]pyridin-5-yl)pyrrolo[2,1-f][1,2,4]triazin-2-yl)amino)tetrahydro-2H-pyran-3-ol] | 33
27 | CO[C@@H]1COCC[C@H]1Nc1ncc2c(-c3ccc4nc(C)n(CC(F)F)c4n3)ccn2n1 [Compound 1867, 5-(3-(2,2-Difluoroethyl)-2-methyl-3H-imidazo[4,5-b]pyridin-5-yl)-N-((3S,4R)-3-methoxytetrahydro-2H-pyran-4-yl)pyrrolo[2,1-f][1,2,4]triazin-2-amine] | 32
28 | Cc1nc2ccc(-c3ccn4nc(N[C@H]5CC[C@@](C)(O)CC5)ncc34)nc2n1CC(F)(F)F [Compound 1868, cis-1-Methyl-4-((5-(2-methyl-3-(2,2,2-trifluoroethyl)-3H-imidazo[4,5-b]pyridin-5-yl)pyrrolo[2,1-f] [1,2,4]triazin-2-yl)amino)cyclohexan-1-ol] | 9
29 | Cc1nc2ccc(-c3ccn4nc(N[C@H]5CC[C@@](C)(O)CC5)ncc34)nc2n1CC(C)(C)C#N [Compound 1869, 3-(5-(2-((cis-4-Hydroxy-4-methylcyclohexyl)amino)pyrrolo[2,1-f][1,2,4]triazin-5-yl)-2-methyl-3H-imidazo[4,5-b]pyridin-3-yl)-2,2-dimethylpropanenitrile] | 16
30 | Cc1nc2ccc(-c3ccn4nc(NC5CCC(F)(F)CC5)ncc34)nc2n1CC(C)(C)O [Compound 1870, 1-(5-(2-((4,4-Difluorocyclohexyl)amino)pyrrolo[2,1-f][1,2,4]triazin-5-yl)-2-methyl-3H-imidazo[4,5-b]pyridin-3-yl)-2-methylpropan-2-ol] | 78
31 | Cc1nc2ccc(-c3ccn4nc(NC5CCOCC5)ncc34)nc2n1CC(C)(C)O [Compound 1871, 2-Methyl-1-(2-methyl-5-(2-((tetrahydro-2H-pyran-4-yl)amino)pyrrolo[2,1-f][1,2,4]triazin-5-yl)-3H-imidazo[4,5-b]pyridin-3-yl)propan-2-ol] | 72
32 | Cc1nc2ccc(-c3ccn4nc(N[C@H]5CC[C@@](C)(O)CC5)ncc34)nc2n1CC(=O)N(C)C [Compound 1872, 2-(5-(2-((cis-4-Hydroxy-4-methylcyclohexyl)amino)pyrrolo[2,1-f][1,2,4]triazin-5-yl)-2-methyl-3H-imidazo[4,5-b]pyridin-3-yl)-N,N-dimethylacetamide] | 498
